In PubChem BioAssay (NCI):
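Grown in 96-well plates, cells were treated for 48 hours with each compound at five concentrations. Insufficient inhibition: endpoint recorded as highest concentration tested. GI50 = concentration required for 50% inhibition of growth. Definition used: TGI = concentration required for complete inhibition of growth.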

Assays:
Assay in all cases: growth of human tumour cells (NCI), 48 h
T-47D breast = system: T-47D breast
OVCAR-8 ovarian = system: OVCAR-8 ovarian
SK-MEL-28 melanoma = system: SK-MEL-28 melanoma
LOX IMVI melanoma = system: LOX IMVI melanoma
COLO 205 colon = system: COLO 205 colon
NCI/ADR-RES ovarian = system: NCI/ADR-RES ovarian
A498 renal = system: A498 renal
SK-MEL-5 melanoma = system: SK-MEL-5 melanoma
HCT-15 colon = system: HCT-15 colon
SK-MEL-2 melanoma = system: SK-MEL-2 melanoma
NCI-H460 lung = system: NCI-H460 lung
SW-620 colon = system: SW-620 colon
NCI-H226 lung = system: NCI-H226 lung
SNB-75 CNS = system: SNB-75 CNS
K-562 leukemia = system: K-562 leukemia
HCT-116 colon = system: HCT-116 colon
HOP-92 NSCLC = system: HOP-92 NSCLC
OVCAR-5 ovarian = system: OVCAR-5 ovarian
SF-268 CNS = system: SF-268 CNS
HCC-2998 colon = system: HCC-2998 colon
UACC-257 melanoma = system: UACC-257 melanoma
M14 melanoma = system: M14 melanoma
U251 CNS = system: U251 CNS
A549 NSCLC = system: A549 NSCLC
EKVX NSCLC = system: EKVX NSCLC
MDA-MB-231 breast = system: MDA-MB-231 breast
OVCAR-4 ovarian = system: OVCAR-4 ovarian
PC-3 prostate = system: PC-3 prostate
RPMI-8226 leukemia = system: RPMI-8226 leukemia
CAKI-1 renal = system: CAKI-1 renal
UACC-62 melanoma = system: UACC-62 melanoma
KM12 colon = system: KM12 colon
SF-295 CNS = system: SF-295 CNS
ACHN renal = system: ACHN renal
SK-OV-3 ovarian = system: SK-OV-3 ovarian
DU-145 prostate = system: DU-145 prostate
SNB-19 CNS = system: SNB-19 CNS
NCI-H23 lung = system: NCI-H23 lung
786-0 renal = system: 786-0 renal
OVCAR-3 ovarian = system: OVCAR-3 ovarian
MDA-MB-435 = system: MDA-MB-435
BT-549 breast = system: BT-549 breast
HOP-62 NSCLC = system: HOP-62 NSCLC
CCRF-CEM leukemia = system: CCRF-CEM leukemia
RXF 393 renal = system: RXF 393 renal
UO-31 renal = system: UO-31 renal
TK-10 renal = system: TK-10 renal
NCI-H522 lung = system: NCI-H522 lung
HS 578T breast = system: HS 578T breast
HT29 colon = system: HT29 colon
SF-539 CNS = system: SF-539 CNS
MCF7 breast = system: MCF7 breast
SN12C renal = system: SN12C renal
MOLT-4 leukemia = system: MOLT-4 leukemia
MALME-3M melanoma = system: MALME-3M melanoma
HL-60(TB) leukemia = system: HL-60(TB) leukemia
IGROV1 ovarian = system: IGROV1 ovarian

Structure (SMILES): CC(C)C(N)C(=O)NC(CCC(=O)NCCCCC(N)C(=O)NCCCNc1ccc([N+](=O)[O-])c2[nH]c3ccccc3c(=O)c12)C(N)=O (configuration not stated)
- TGI (T-47D breast): > 100 µM
- TGI (OVCAR-8 ovarian): > 100 µM
- TGI (SK-MEL-28 melanoma): > 100 µM
- TGI (LOX IMVI melanoma): 80.2 µM
- TGI (COLO 205 colon): > 100 µM
- TGI (NCI/ADR-RES ovarian): > 100 µM
- TGI (A498 renal): > 100 µM
- TGI (SK-MEL-5 melanoma): > 100 µM
- TGI (HCT-15 colon): > 100 µM
- TGI (SK-MEL-2 melanoma): > 100 µM
- TGI (NCI-H460 lung): > 100 µM
- TGI (SW-620 colon): > 100 µM
- TGI (NCI-H226 lung): > 100 µM
- TGI (SNB-75 CNS): > 100 µM
- TGI (K-562 leukemia): > 100 µM
- TGI (HCT-116 colon): > 100 µM
- TGI (HOP-92 NSCLC): > 100 µM
- TGI (OVCAR-5 ovarian): > 100 µM
- TGI (SF-268 CNS): > 100 µM
- TGI (HCC-2998 colon): > 100 µM
- TGI (UACC-257 melanoma): > 100 µM
- TGI (M14 melanoma): > 100 µM
- TGI (U251 CNS): > 100 µM
- TGI (A549 NSCLC): > 100 µM
- TGI (EKVX NSCLC): > 100 µM
- TGI (MDA-MB-231 breast): > 100 µM
- TGI (OVCAR-4 ovarian): > 100 µM
- TGI (PC-3 prostate): > 100 µM
- TGI (RPMI-8226 leukemia): > 100 µM
- TGI (CAKI-1 renal): > 100 µM
- TGI (UACC-62 melanoma): > 100 µM
- TGI (KM12 colon): > 100 µM
- TGI (SF-295 CNS): > 100 µM
- TGI (ACHN renal): > 100 µM
- TGI (SK-OV-3 ovarian): > 100 µM
- TGI (DU-145 prostate): > 100 µM
- TGI (SNB-19 CNS): > 100 µM
- TGI (NCI-H23 lung): > 100 µM
- TGI (786-0 renal): > 100 µM
- TGI (OVCAR-3 ovarian): > 100 µM
- TGI (MDA-MB-435): > 100 µM
- TGI (BT-549 breast): 29.4 µM
- TGI (HOP-62 NSCLC): > 100 µM
- TGI (CCRF-CEM leukemia): > 100 µM
- TGI (RXF 393 renal): 46.5 µM
- TGI (UO-31 renal): > 100 µM
- TGI (TK-10 renal): > 100 µM

Structure (SMILES): Cc1c2c(cc[n+]1Cc1ccc(F)cc1)c1ccc(OCc3cccc(F)c3)cc1n2Cc1cccc(F)c1
- GI50 (NCI/ADR-RES ovarian): 8.62 µM
- TGI (NCI/ADR-RES ovarian): > 100 µM
- GI50 (CAKI-1 renal): 2.02 µM
- TGI (CAKI-1 renal): 5.55 µM
- GI50 (SK-OV-3 ovarian): 1.81 µM
- TGI (SK-OV-3 ovarian): 3.28 µM

Structure (SMILES): Nc1ccc(-c2nn3c(COc4ccc(Cl)cc4)nnc3s2)cc1
- TGI (T-47D breast): > 100 µM
- TGI (NCI-H522 lung): > 100 µM
- TGI (OVCAR-8 ovarian): > 100 µM
- TGI (SK-MEL-28 melanoma): > 100 µM
- TGI (LOX IMVI melanoma): > 100 µM
- TGI (COLO 205 colon): > 100 µM
- TGI (NCI/ADR-RES ovarian): > 100 µM
- TGI (SK-MEL-5 melanoma): > 100 µM
- TGI (HCT-15 colon): > 100 µM
- TGI (SK-MEL-2 melanoma): > 100 µM
- TGI (NCI-H460 lung): > 100 µM
- TGI (SW-620 colon): > 100 µM
- GI50 (NCI-H226 lung): 7.19 µM
- TGI (NCI-H226 lung): > 100 µM
- TGI (SNB-75 CNS): > 100 µM
- TGI (K-562 leukemia): > 100 µM
- GI50 (HCT-116 colon): 34.8 µM
- TGI (HCT-116 colon): > 100 µM
- GI50 (HOP-92 NSCLC): 98 µM
- TGI (HOP-92 NSCLC): > 100 µM
- TGI (OVCAR-5 ovarian): > 100 µM
- GI50 (SF-268 CNS): 46.8 µM
- TGI (SF-268 CNS): > 100 µM
- TGI (HCC-2998 colon): > 100 µM
- TGI (UACC-257 melanoma): > 100 µM
- TGI (M14 melanoma): > 100 µM
- TGI (U251 CNS): > 100 µM
- TGI (A549 NSCLC): > 100 µM
- TGI (HS 578T breast): > 100 µM
- TGI (EKVX NSCLC): > 100 µM
- TGI (HT29 colon): > 100 µM
- GI50 (SF-539 CNS): 34.5 µM
- TGI (SF-539 CNS): > 100 µM
- TGI (MDA-MB-231 breast): > 100 µM
- TGI (OVCAR-4 ovarian): > 100 µM
- TGI (PC-3 prostate): > 100 µM
- TGI (RPMI-8226 leukemia): > 100 µM
- GI50 (MCF7 breast): 41 µM
- TGI (MCF7 breast): > 100 µM
- TGI (SN12C renal): > 100 µM
- TGI (CAKI-1 renal): > 100 µM
- TGI (MOLT-4 leukemia): > 100 µM
- TGI (MALME-3M melanoma): > 100 µM
- TGI (HL-60(TB) leukemia): > 100 µM
- TGI (UACC-62 melanoma): > 100 µM
- GI50 (KM12 colon): 99.5 µM
- TGI (KM12 colon): > 100 µM
- TGI (SF-295 CNS): > 100 µM
- TGI (ACHN renal): > 100 µM
- TGI (SK-OV-3 ovarian): > 100 µM
- TGI (IGROV1 ovarian): > 100 µM
- TGI (DU-145 prostate): > 100 µM
- TGI (SNB-19 CNS): > 100 µM
- TGI (NCI-H23 lung): > 100 µM
- TGI (786-0 renal): > 100 µM
- TGI (OVCAR-3 ovarian): > 100 µM
- TGI (MDA-MB-435): > 100 µM
- GI50 (HOP-62 NSCLC): 20.2 µM
- TGI (HOP-62 NSCLC): > 100 µM
- GI50 (CCRF-CEM leukemia): 10 µM
- TGI (CCRF-CEM leukemia): > 100 µM
- TGI (RXF 393 renal): > 100 µM
- TGI (UO-31 renal): > 100 µM
- TGI (TK-10 renal): > 100 µM
